Values of other authors, collected in patent US8071607B2, “Mnk1 or Mnk2 inhibitors” (Boehringer Ingelheim International GmbH, priority 2004, dated 2011).

Key:
human Mnk2 protein = human Mnk2 protein (Homo sapiens, UniProt Q9HBH9); details: described in WO 02/103361
Mnk2 (Mnk2a or Mnk2b) = details: cell culture cells transfected with Mnk2 (Mnk2a or Mnk2b)
Mnk1 = Mnk1 (Homo sapiens, UniProt Q9BUB5); details: cell culture cells transfected with Mnk1
Sequence of Mnk1 (Q9BUB5 whole entry): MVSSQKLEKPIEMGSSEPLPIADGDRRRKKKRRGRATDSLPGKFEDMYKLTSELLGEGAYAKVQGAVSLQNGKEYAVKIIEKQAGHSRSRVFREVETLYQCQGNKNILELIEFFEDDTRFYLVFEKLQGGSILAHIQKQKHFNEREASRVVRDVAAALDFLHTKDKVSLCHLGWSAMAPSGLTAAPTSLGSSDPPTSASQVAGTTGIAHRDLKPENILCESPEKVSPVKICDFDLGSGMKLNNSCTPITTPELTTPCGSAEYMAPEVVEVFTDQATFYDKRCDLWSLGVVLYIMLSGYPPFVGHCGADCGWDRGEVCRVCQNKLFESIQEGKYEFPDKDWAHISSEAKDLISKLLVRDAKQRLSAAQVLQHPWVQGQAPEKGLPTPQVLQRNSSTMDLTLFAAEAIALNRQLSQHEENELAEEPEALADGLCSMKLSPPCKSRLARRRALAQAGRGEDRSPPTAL

Sequence of human Mnk2 protein (Q9HBH9 whole entry): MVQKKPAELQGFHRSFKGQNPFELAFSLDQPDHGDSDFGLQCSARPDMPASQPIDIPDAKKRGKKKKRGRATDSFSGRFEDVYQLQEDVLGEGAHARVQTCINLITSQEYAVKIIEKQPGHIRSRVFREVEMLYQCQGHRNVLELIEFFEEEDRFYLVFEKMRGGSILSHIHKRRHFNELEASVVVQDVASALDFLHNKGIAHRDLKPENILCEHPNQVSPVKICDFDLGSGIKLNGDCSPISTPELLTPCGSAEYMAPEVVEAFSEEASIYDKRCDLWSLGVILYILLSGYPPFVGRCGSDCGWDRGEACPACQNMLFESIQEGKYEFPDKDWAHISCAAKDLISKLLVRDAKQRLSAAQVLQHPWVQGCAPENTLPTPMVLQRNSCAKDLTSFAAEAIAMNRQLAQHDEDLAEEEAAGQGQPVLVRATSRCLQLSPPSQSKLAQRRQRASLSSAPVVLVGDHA

Row | Structure (SMILES) | binding to the human Mnk2 protein (human Mnk2 protein) | phosphorylated eIF4E (Mnk2 (Mnk2a or Mnk2b)) | phosphorylated eIF4E (Mnk1)
1 | COC(=O)c1ccc(O)cc1 [4-hydroxybenzoic acid methyl ester] | binds | – | –
2 | Nc1ncnc2n[nH]c(Nc3ccc(F)cc3)c12 [CGP57380] | – | strong reduction | strong reduction
